Columns and labels:
RAW264.7 cell = assay: CD80 expression on RAW264.7 (macrophage) cells by flow cytometry; format: cell-based
Protocol: TJM2010-5 can inhibit the up-regulation of RAW264.7 cell on costimulatory molecules CD80 caused by TLR stimulant (LPS, CpG), which means that TJM2010-5 can effectively block the TLR signal pathway, thus to inhibit the cells' immune reaction.
Raw264.7: Place the cells into a 48-pore plate, the number of cells is 9×10^5/pore, and 1 ml of medium system is added to each pore. Firstly, add TJM2010-5 of different concentration gradients to pre-incubate the cells for 2 h, then, add the CPG to get the final concentration of 40 ug/ml, and then incubate them in CO2 incubator at 37° C. for one night (12 h). Add the flow antibody FITC to label anti-CD80, CD86, and conduct detection with machine;
(§1) Add the flow antibody FITC to label anti-CD80, CD86, and conduct detection with machine.

DC = assay: CD80/CD86 expression on bone marrow DC by flow cytometry; format: cell-based, mice
Protocol: 1. Derive the bone marrow cell from the BALB/c mice administrated with TJM2010-5, destruct the red blood cell, and place them into the RPMI1640 medium with the concentration of 2×10^6/ML (adding GM-CSF of 10 ng/ml, IL-4 of 10 ng/ml);
2. Remove the suspension cell 48 hours later, and collect the suspension and anchorage-dependent cell on day 6.
3. Place DCs into […] of TJM2010-5 for cultivating for 1 hour, add necrotic myocardium supernate, LPS (200 ng/ml), Poly I:C (20 mg/ml), CpG (10 mg/ml) to cultivate the cells for 12 hours.
4. Add the flow antibody FITC to label anti-CD80, CD86, and conduct detection with machine.
DC: Place the cells into a 48-pore plate, the number of cells is 1×10^6/pore, and 1 ml of medium system is added to each pore. Firstly, add TJM2010-5 of different concentration gradients to pre-incubate the cells for 2 h, then, add the LPS to get the final concentration of 1 ug/ml, and then incubate them in CO2 incubator at 37° C. for one night (12 h).
as §1

T cells = assay: activation of T cells (FIG. 3a); format: cell-based
C57bl/6 mice kidney IRI = assay: renal ischemia reperfusion injury in mice; format: in vivo
Protocol: 1. Groups: General C57bl/6 group (Control), CMC vehicle group, MYD88KO group, TJ-M2010 group, the 8 mice in each group will be provided with treatment of ischemia reperfusion: narcotize, block the left kidney with vascular clamp, and place them in incubator of 31 C° for 80 min; after that, open it and remove the right kidney, and then close the abdomen. Collect blood 24 hours later to conduct BUN, Cr detection.
2. For TJM2010-5 group and CMC group, provide intraperitoneal injection of TJ-M2010-5 dissolved in 0.5% CMC of 150 mg/kg/d on the day before and the day of operation; for CMC group: inject 0.5% CMC solution of 200 μl.
3. Observe the survival time of mice, and make the survival curve. Send the blood specimen to the pathology department for detection of BUN, Cr.

Balb/c mice = assay: AOM/DSS chronic colitis and colitis-associated colorectal cancer (CAC) model; format: in vivo
Protocol: Construct the chronic colitis and colitis-associated colorectal cancer (CAC) model: apply intraperitoneal injection of 10 mg/Kg azoxymethane (AOM) (Sigma-Aldrich Chemical) to 40Balb/c mice, and start to execute three cycles of feeding of drinking water containing 2.5% of dextran sodium sulfate (DSS) (MP Biomedicals) 7 days later, and each cycle consists one week of feeding DSS water and two weeks of feeding common fresh water. Then, observe them in the following 10 weeks. […] 100% of mice in this group have colorectal cancer.
TJM2010-5 treatment group: Provide intragastric administration of TJM2010-5 of 50 mg/kg to 20 Balb/c mice in two days before providing the treatment mentioned above, and observe them in ten weeks.
Mechanism study: Take the specimen of serum, colon, and spleen etc. from 4 mice in each group 2 weeks and 7 weeks later to detect the infiltration of IRAK4 and inflammatory cytokines, macrophage and Gr-1^highCD11b^high MDSC, and the proportion of LPMCs (lamina propria mononuclearcells) F4/80^+CD11b^+ macrophage etc.
The experimental procedure is the same with that of the experiment on effect of TJM2010-5 in preventing and treating colitis and colorectal cancer: Apply intragastric administration of TJM2010-1, TJM2010-2, TJM2010-3, TJM2010-4, TJM2010-5 of 50 mg/kg to 20 Balb/c mice in each group of totally 6 groups, and then, observe them in the following 10 weeks. The mice with colitis and colorectal cancer in the group corresponding to TJM2010-5 and TJM2010-1, TJM2010-2, TJM2010-3, TJM2010-4, TJM2010-5 accounts 0%, 71.52%, 42.28%, 60.19%, 81.34% respectively; 2. TJM2010-5 can 100% prevent and cure chronic colitis and prevent the colorectal cancer incurred by chronic colitis. […] Other aminothiazole compound has no or little such curative effect.

## O=C(CCN1CCN(Cc2ccccc2)CC1)Nc1nc(-c2ccccc2)cs1 [TJM2010-5, 3-(4-benzylpiperazin-1-yl)-N-(4-phenylthiazol-2-yl) propanamide]
RAW264.7 cell; RAW264.7 cell
  up-regulation of costimulatory molecule CD80 caused by TLR stimulant (LPS, CpG): inhibit
RAW264.7 cell; Raw264.7, 2 h pre-incubation, CPG 40 ug/ml, 12 h, FIG. 3d
  expression of CD80 on macrophage surface: concentration-dependent inhibition
DC
  up-regulation of costimulatory molecules CD80/CD86 incurred by LPS, CpG: inhibit up-regulation
DC; DC, 2 h pre-incubation, LPS 1 ug/ml, 12 h, FIG. 3c
  expression of CD80 on DC surface: concentration-dependent inhibition
DC; FIG. 3b
  CD80 expression on DC stimulated by LPS, CPG, cardiac tissue homogenate: down-regulate
T cells
  activation of T cells: dose-dependently reduce
C57bl/6 mice kidney IRI; 150 mg/kg/d intraperitoneal day before and day of operation, FIG. 6
  survival rate after mice kidney IRI: significantly improve
C57bl/6 mice kidney IRI; 150 mg/kg/d intraperitoneal, blood 24 hours later, FIG. 7
  protection of kidney functions (BUN, Cr): better protection effect
Balb/c mice; 50 mg/kg intragastric
  colitis finding: No apparent colitis
Balb/c mice; 50 mg/kg intragastric, 20 Balb/c mice per group, observed 10 weeks
  mice with colitis and colorectal cancer: 0%
Balb/c mice; 50 mg/kg intragastric, FIG. 12A
  weights vs untreated group: obviously higher than that of untreated group
Balb/c mice; 50 mg/kg intragastric, FIG. 12B
  survival rate vs control group: obviously higher than that of control group
Balb/c mice; FIG. 12C
  mice having colitis and colorectal cancer: no mice
Balb/c mice; FIG. 13A
  activation of IRAK4: inhibit
  p-IRAK4: reduce
Balb/c mice; FIG. 13B
  activation of NF-κB p65: inhibit
Balb/c mice; FIG. 13C
  generation of G-CSF vs control group: obviously lower than those of control group
  generation of IL-6 vs control group: obviously lower than those of control group
  generation of MIP-1β vs control group: obviously lower than those of control group
  generation of TGF-β1 vs control group: obviously lower than those of control group
  generation of TNF-α vs control group: obviously lower than those of control group
Balb/c mice; FIG. 13D
  level of IL-6 mRNA vs control group: obviously lower than those of control group
  level of TGF-β1 mRNA vs control group: obviously lower than those of control group
Balb/c mice; FIG. 14
  infiltration of macrophage: reduce
Balb/c mice; FIG. 14B
  F4/80+CD11b+ tumor-associated macrophage in LPMCs: reduces
Balb/c mice; FIG. 14C
  infiltration of Gr-1highCD11bhigh MDSC (myeloid suppressor cells): reduce
Balb/c mice; FIG. 14D
  expression of IL-6: reduce
Balb/c mice; intragastric
  prevention and cure of chronic colitis and prevention of colorectal cancer: 100%

Reference: patent US20180318291A1, “USE OF AMINOTHIAZOLE MYD88 SPECIFIC INHIBITOR TJM2010-5” (WUHAN INNAMUNE PHARMACEUTICAL INC. LTD., priority 2015, published 2018)
